Experimental data as given in patent US9453056B2, “Nucleic acid construct comprising nucleic acid derived from genome of hepatitis C virus of genotype 3a” (priority 2011, dated 2016).

How the values were obtained:
[1] = tested on: JFH-1 subgenomic replicon-replicating cells; assay: Effect of antiviral agents on replicon RNA replication in JFH-1 subgenomic replicon-replicating cells (quantification of replicon RNA copy number); type: cell-based, hepatitis C virus of genotype 2a (JFH-1 strain); details: inhibitor for 3 days, relative to no inhibitor (100%)
Description: (§1) With the use of the S310A subgenomic replicon-replicating cells of the established 10 clones (Clone Nos. 1 to 10), the copy number of intracellular HCV subgenomic replicon RNA was quantified. The quantification of copy number of HCV subgenomic replicon RNA was carried out in accordance with the technique described in Takeuchi et al. (Gastroenterology, 1999, Vol. 116, pp. 636-642) and Kato et al. (Gastroenterology, 2003, Vol. 125, pp. 1808-1817).
(§2) This technique is a detection system using TaqMan probe method (PerkinElmer Inc., Applied Biosystems Inc.). Specifically, total RNA was first extracted from the S310A subgenomic replicon-replicating cells in accordance with a conventional technique. Subsequently, cDNA was synthesized from total RNA using rTth DNA polymerase, and the synthesized cDNA template was amplified via PCR using the primers: 5′-CGGGAGAGCCATAGTGG-3′ (SEQ ID NO: 24) and 5′-AGTACCACAAGGCCTTTCG-3′ (SEQ ID NO: 25). At this time, a probe having the nucleotide sequence 5′-[…]-3′ (SEQ ID NO: 26) to which a fluorescent dye, 6′-carboxy-fluorescein (FAM), had been bound at the 5′ terminus and a quencher, 6′-carboxytetramethyl-rhodamine (TAMRA), had been bound at the 3′ terminus was added. In the presence of such probe, the probe that had hybridized to the template cDNA is degraded because of 5′ exonuclease activity of the Taq polymerase during the process of amplification, the fluorescent dye is released from the probe, suppression by the quencher is released, thereby emitting fluorescence. Thus, such fluorescence was detected with ABI Prism 7700 (ParkinElmer Inc., Applied Biosystems Inc.) to quantify the copy number of HCV subgenomic replicon RNA.
As a control for comparison, the cells into which HCV subgenomic replicon RNA of the JFH-1 strain of genotype 2a had been introduced (the JFH-1 subgenomic replicon-replicating cells) were used. The JFH-1 strain HCV subgenomic replicon RNA expression vector (comprising the 5′ untranslated region (5′ UTR), the sequence of 57 nucleotides at the 5′ terminus of the Core protein coding region, the neomycin resistance gene, the EMCV IRES sequence, the nucleotide sequences encoding the NS3 protein, the NS4A protein, the NS4B protein, the NS5A protein and the NS5B protein, and the 3′ untranslated region (3′ UTR) of the HCV JFH-1 strain in this order from the 5′ to 3′ direction) was constructed and HCV subgenomic replicon RNA was produced in accordance with the techniques described in Kato et al. (Gastroenterology, 2003, Vol. 125, pp. 1808-1817) and International Publication No. WO 04/104198. Introduction thereof into the Huh cells and quantification of the copy number were carried out in the manner as described above. […]

[2] = tested on: S310A subgenomic replicon-replicating cells (clones); assay: Effect of antiviral agents on replicon RNA replication in S310A subgenomic replicon-replicating cells (quantification of replicon RNA copy number); type: cell-based, hepatitis C virus of genotype 3a (S310A strain); details: S310A subgenomic replicon-replicating cell clones 6, 9 and 10; inhibitor for 3 days; relative to no inhibitor (100%)
Description: as §1, §2
The S310A subgenomic replicon-replicating cells (clones) and the JFH-1 subgenomic replicon-replicating cells were seeded on 24-well plates at a density of 5×10^4 cells/well, interferon-α (IFN-α), NS3 protease inhibitors (VX-950 (telaprevir) (Lin et al, Journal of Biological Chemistry, 2004, Vol. 279, pp. 17508-17514) and BILN-2061 (Daniel et al, Nature, 2003, Vol. 426, pp. 186-189)), and NS5B polymerase inhibitors JTK-109 (Hirashima et al, Journal of Medicinal Chemistry, 2006, Vol. 49, pp. 4721-4736) and PSI-6130 (Clark et al, Journal of Medicinal Chemistry, 2005, Vol. 48, pp. 5504-5508) were added to the wells on the following day, and the reaction was allowed to proceed for 3 days. Thereafter, the cells were recovered, total RNAs were extracted therefrom, and the copy number of HCV subgenomic replicon RNA in the cells was quantified in the same manner as in Example 4.
In each figure, the horizontal axis represents the concentration of an inhibitor added. The vertical axis represents change ratio of HCV RNA levels, which is the percentage (%) of the amount of subgenomic replicon RNA per μg of total RNA from cells when an inhibitor was added, relative to the amount of subgenomic replicon RNA per μg of total RNA from cells when no inhibitor was added (0 IU or 0 M) (defined as 100%). In the Figures, the leftmost bar (white) represents the results for the JFH-1 subgenomic replicon-replicating cells, the second bar from the left (light gray) represents the results for the S310A subgenomic replicon-replicating cell clone 6, the third bar from the left (black) represents the results for the S310A subgenomic replicon-replicating cell clone 9, and the rightmost bar (dark gray) represents the results for the S310A subgenomic replicon-replicating cell clone 10 at each inhibitor concentration.

HCV genotype 3a = details: Reesink et al., Gastroenterology, 2010; cited from earlier work
[3] = tested on: HCV genotypes 1 to 6 except for genotype 3a; details: Reesink et al., Gastroenterology, 2010; cited from earlier work
HCV genotype 2a or 3a = details: compared with genotype 1b; Mori et al., 1992; cited from earlier work
HCV genotype 1b = details: Mori et al., 1992; cited from earlier work

Row | Molecule | replication of the JFH-1 subgenomic replicon RNA (change ratio of HCV RNA levels) [1] | replication of the S310A subgenomic replicon RNAs (change ratio of HCV RNA levels) [2] | further results
1 | COc1ccc2c(O[C@@H]3C[C@H]4C(=O)N[C@]5(C(=O)O)C[C@H]5/C=C\CCCCC[C@H](NC(=O)OC5CCCC5)C(=O)N4C3)cc(-c3csc(NC(C)C)n3)nc2c1 [BILN-2061] | exert inhibitory activity | did not inhibit | –
2 | O=C(O)c1ccc2c(c1)nc(-c1ccc(OCc3cc(N4CCCC4=O)ccc3-c3ccc(Cl)cc3)cc1F)n2C1CCCCC1 [JTK-109] | not to be inhibited | markedly inhibited | –
3 | C[C@@]1(F)[C@H](O)[C@@H](CO)O[C@H]1n1ccc(N)nc1=O [PSI-6130] | inhibited | inhibited | –
4 | COc1ccc2c(O[C@@H]3C[C@H]4C(=O)N[C@]5(C(=O)NS(=O)(=O)C6CC6)C[C@H]5/C=C\CCCCN(C)C(=O)[C@@H]4C3)cc(-c3nc(C(C)C)cs3)nc2c1C [TMC435] | – | – | inhibitory effects on genotype 3a (HCV genotype 3a): weak inhibitory effects; inhibitory effects on genotypes 1 to 6 except for genotype 3a [3]: strong inhibitory effects
5 | CCC[C@H](NC(=O)[C@@H]1[C@H]2CCC[C@H]2CN1C(=O)[C@@H](NC(=O)[C@@H](NC(=O)c1cnccn1)C1CCCCC1)C(C)(C)C)C(=O)C(=O)NC1CC1 [VX-950, telaprevir] | – | did not inhibit | –
6 | IFN-α | markedly inhibited | markedly inhibited | –
7 | interferon | – | – | therapeutic effect of interferon on genotype 2a or 3a (HCV genotype 2a or 3a): higher; therapeutic effect of interferon on genotype 1b (HCV genotype 1b): low
